Marks after values point to notes of the source that are not given here.
Assays:
[1] = tested on: APP in SH-SY-5Y human neuroblastoma cells; assay: APP in vitro (Western blot) in neuroblastoma cells; type: cell-based; conditions: SH-SY-5Y cells; 0, 0.1, 1, 5 and 10 μM
APP and its fragments = assay: APP in vivo in APP/PS1 transgenic AD mice (hippocampus)
Excerpt: FIG. 2, APP in vivo. […] GAPDH and Synaptophysin were loading controls. FIG. 2 also includes a collection of graphs showing relative density of APP plotted against control and time after buntanetap treatment; relative density of CTFβ plotted against control and time after buntanetap treatment; relative density of CTFα plotted against control and time after buntanetap treatment; A042 levels in brain tissue plotted against control and time after buntanetap treatment; and A040 levels in brain tissue plotted against control and time after buntanetap treatment. Finally, FIG. 2 also includes a Western blot showing levels of APP, NSB, CTFβ, and CTFα after buntanetap treatment over time (minutes).

[2] = tested on: patients with mild to moderate AD; assay: Phase II/III dose-ranging study of buntanetap in mild to moderate AD (ADAS-Cog 11); type: in vivo, human
Description: A randomized, double-blind, placebo-controlled Phase II/III study trial investigating the efficacy, safety, and tolerability of buntanetap in patients with mild to moderate AD was conducted. This was a dose-ranging study where patients received either one of three doses of buntanetap (7.5 mg, 15 mg, or 30 mg) or placebo on top of their standard of care for 12 weeks. In this study, over 700 patients were screened, a total of 353 patients were enrolled, and 325 patients completed the study across 54 sites in the US. The study included mild to moderate AD patients whose Mini Mental State Examination (MMSE) scores at baseline ranged from 14 to 24. (www.clinicaltrials.gov (NCT05686044)).
Beyond safety, the trial assessed the changes in two co-primary endpoints: Alzheimer's Disease Assessment Scale-Cognitive Subscale 11 (ADAS-Cog 11) and Alzheimer's Disease Cooperative Study Clinician's Global Impression of Change (ADCS-CGIC), which assess cognition and activities of daily living. The study monitored for safety and collected plasma to measure several biomarkers to assess the disease state, potential disease progression, and treatment effects.

APP/PS1 transgenic mice = assay: 2-day radial arm water maze (RAWM), spatial memory; type: in vivo
Description: Animals: Heterozygous double transgenic mice expressing both human APP (K670N:M671L) and human PS1 (M146L) (line 6.2) and their wild-type non-transgenic littermates, both males and females, were used for these experiments. They were obtained by a breeding colony maintained at the animal facility of Columbia University. They were genotyped through PCR on tail samples. Animals were injected i.p. from the age of […] for 1 month prior to starting behavioral assessment which lasted for 2 weeks during which treatment continued. Behavioral assessment examined spatial and associative memory. Finally, mice were sacrificed for electrophysiological assessment of synaptic function.
Mice were coded to blind investigators with respect to genotype and treatment. Results were expressed with Standard Error of the Mean (SEM). Level of significance was set for p<0.05. Results were analyzed by ANOVA analysis with post-hoc correction with the combination or genotype as main effect. Experiments were designed in a balanced fashion, and mice were trained and tested at each of the different conditions in 3 or 4 separate experiments.
Mice were i.p. injected with the drug from the age of 8 weeks prior to plaque appearance until behavioral assessment that started at 12 weeks of age and lasted for 2 weeks.
Spatial memory was studied with the 2-day radial arm water maze (RAWM) test. The task is a hybrid of the Morris Water Maze (MWM) and the radial arm land maze. The motivation for the animals is immersion in water. The mouse needs to swim in 6 alleys (arms) radiating from a central area until it finds a hidden (submerged) platform at the end of one of the arms, based on visual cues placed in the room. In the old RAWM version of the task, the goal arm varies from day to day, requiring 21 days of training in wild-type mice to reach the learning criterion. In the new version of the task, the goal arm is kept constant for all trials, with a different start arm on successive trials, such that the learning criterion will be reached in 2 days. The first day of the protocol was a training day. Mice were trained to identify the platform location by alternating between a visible and a hidden platform in a goal arm. The final 3 trials on day 1 and all 15 trials on day 2 used a hidden escape platform to force mice to use spatial cues to identify the location of the goal arm. To avoid learning limitations imposed by exhausting practice and to avoid fatigue that may result from consecutive trials, spaced practice training was established by running the mice in cohorts of 4 and alternating different cohorts through the 15 training trials over 3 hours testing periods each day. On day 1, a visible platform was laced in a goal location. Mouse 1 of cohort 1 was gently placed in the pool near the perimeter of the wall of the first start arm (specified on a score sheet) and facing the center of the pool. The number of incorrect arm entries (entries in arms with no platform) was counted. If the animal enters the incorrect arm it was gently pulled back to the start arm. Each trial lasted up to 1 min. Failure to select an arm after 15 sec was counted as an error and the mouse was returned to the start arm. After 1 min, if the platform had not been located, the mouse was guided gently through the water by placing a hand behind it to direct it towards the platform. The mouse rested on the platform for 15 sec. After completing the trial, the mouse was removed from the pool, gently towel dried and placed back into its cage under a heat lamp. The goal platform location was different for each mouse. […] After each mouse from cohort 1 completed six alternating trials between visible and hidden platforms, the mice were left to rest under a heating source, and mice from the second cohort were tested in the same way.

aSYN = conditions: neuroblastoma cells; cited from earlier work
[3] = tested on: Ts65dn mouse model of Down syndrome (DS); conditions: cited from earlier work
[4] = tested on: human SNCAA53T tg mouse model of PD; conditions: cited from earlier work
[5] = tested on: fully differentiated Down syndrome nerve cells; conditions: cited from earlier work

With `CN1CC[C@]2(C)c3cc(OC(=O)Nc4ccccc4)ccc3N(C)C12` (stereo partly drawn) [Buntanetap, (3aR)-1,3a,8-trimethyl-1,2,3,3a,8,8a-hexahydropyrrolo[2,3-b]indol-5-yl phenylcarbamate] the “APP in relation to Actin standard (Western blot)” value [1] was “lowers APP in vitro in a dose-dependent manner”, the “time after the last dose for which APP and all related peptides in hippocampus were reduced” value (APP and its fragments; APP/PS1 mice) was “at least 9 hours” and the “APP and its fragments in hippocampus” value (APP and its fragments; APP/PS1 transgenic AD mice) was “reduced”. The “Non-Responders (Number)” value ([2]; 7.5 mg) was 5, the “Non-Responders (Percentage)” value ([2]; 7.5 mg) was “(26.32%)” and the “Responders (Number)” value ([2]; 7.5 mg) was 14. The “Responders (Percentage)” value ([2]; 7.5 mg) was “(73.68%)**”, the “Non-Responders (Number)” value ([2]; 15 mg) was 7 and the “Non-Responders (Percentage)” value ([2]; 15 mg) was “(28.00%)”. The “Responders (Number)” value ([2]; 15 mg) was 18, the “Responders (Percentage)” value ([2]; 15 mg) was “(72.00%)**” and the “Non-Responders (Number)” value ([2]; 30 mg) was 3. For the same compound, the “Non-Responders (Percentage)” value ([2]; 30 mg) was “(12.50%)”, the “Responders (Number)” value ([2]; 30 mg) was 21 and the “Responders (Percentage)” value ([2]; 30 mg) was “(87.50%)***”. The “difference in the proportion of participants who improved relative to placebo” value ([2]; 30 mg group) was “three-fold”, the “improvement in ADAS-Cog 11 scores in each treatment dose relative to placebo” value ([2]; patients with mild AD, 7.5, 15, 30 mg, 12 weeks) was “significantly higher improvement” and the improvement in cognition ([2]; population with confirmed early AD (FIG. 2B)) was “dose-dependent improvement”. For the same compound, the “% Improvement (RAWM errors)” value (APP/PS1 transgenic mice; APP/PS1, Buntanetap 1 mg/kg) was 29.4%, the “Meran Number of Errors (RAWM)” value (APP/PS1 transgenic mice; APP/PS1, Buntanetap 1 mg/kg) was 2.8 and the “Meran Number of Errors (RAWM)” value (APP/PS1 transgenic mice; APP/PS1, Buntanetap 10 mg/kg) was 1.6. The “% Improvement (RAWM errors)” value (APP/PS1 transgenic mice; APP/PS1, Buntanetap 10 mg/kg, 100% = difference of 1.7 errors) was 100%, the “impairment of short-term spatial memory measured through the 2-day radial arm water maze (RAWM)” value (APP/PS1 transgenic mice; APP/PS1 mice, Buntanetap 1 mg/Kg and/or dulaglutide 0.1 mg/Kg) was “did not ameliorate” and the aSYN in vitro (aSYN) was “lowers”. The memory and learning [3] was “Restored”, the colonic motility [4] was “Restored” and the “anterograde and retrograde vesicle transport” value [5] was “Normalized”.

Source: US20250235429A1, “TREATMENT OF DISEASES VIA ADMINISTRATION OF BUNTANETAP AND AN ANTIDIABETIC AGENT” (ANNOVIS BIO, INC., priority 2024, published 2025)
